Assay results published in ChEMBL document CHEMBL4800728, “Data for DCP probe JNJ-54119936” (2021).
The source made the active and inactive calls. The calls are words filed in the database; no cut-off is given here.

What was measured:
[1] = biological target: Substance-K receptor (Homo sapiens) (UniProt P21452); assay: NK2 (h) CEREP screen; conditions: Compound concentration 10.0 uM
[2] = biological target: Alpha-1D adrenergic receptor (Homo sapiens) (UniProt P25100); conditions: Compound concentration 10.0 uM
[3] = biological target: T1, Peroxisome proliferator-activated receptor gamma (Homo sapiens) (UniProt P37231); assay: PPARgamma Indigo Bioscience nuclear receptor screen
T1 sequence (whole entry): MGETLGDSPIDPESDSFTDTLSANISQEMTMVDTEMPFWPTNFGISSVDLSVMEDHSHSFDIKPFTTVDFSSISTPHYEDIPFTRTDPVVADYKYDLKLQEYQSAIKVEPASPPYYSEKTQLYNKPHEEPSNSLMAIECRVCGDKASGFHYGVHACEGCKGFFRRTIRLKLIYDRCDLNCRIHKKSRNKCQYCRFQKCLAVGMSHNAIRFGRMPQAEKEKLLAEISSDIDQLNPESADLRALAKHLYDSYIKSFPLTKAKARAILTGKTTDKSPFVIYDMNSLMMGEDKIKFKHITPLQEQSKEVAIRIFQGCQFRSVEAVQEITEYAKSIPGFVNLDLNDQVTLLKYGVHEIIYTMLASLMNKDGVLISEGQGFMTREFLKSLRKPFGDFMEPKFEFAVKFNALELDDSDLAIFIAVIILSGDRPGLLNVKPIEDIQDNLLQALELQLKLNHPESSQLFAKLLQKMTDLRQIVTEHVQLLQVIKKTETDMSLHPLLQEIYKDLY

[4] = biological target: Muscarinic acetylcholine receptor M4 (Homo sapiens) (UniProt P08173); conditions: Compound concentration 10.0 uM
[5] = biological target: T2, Muscarinic acetylcholine receptor M1 (Homo sapiens) (UniProt P11229); conditions: Compound concentration 10.0 uM
T2 sequence (whole entry): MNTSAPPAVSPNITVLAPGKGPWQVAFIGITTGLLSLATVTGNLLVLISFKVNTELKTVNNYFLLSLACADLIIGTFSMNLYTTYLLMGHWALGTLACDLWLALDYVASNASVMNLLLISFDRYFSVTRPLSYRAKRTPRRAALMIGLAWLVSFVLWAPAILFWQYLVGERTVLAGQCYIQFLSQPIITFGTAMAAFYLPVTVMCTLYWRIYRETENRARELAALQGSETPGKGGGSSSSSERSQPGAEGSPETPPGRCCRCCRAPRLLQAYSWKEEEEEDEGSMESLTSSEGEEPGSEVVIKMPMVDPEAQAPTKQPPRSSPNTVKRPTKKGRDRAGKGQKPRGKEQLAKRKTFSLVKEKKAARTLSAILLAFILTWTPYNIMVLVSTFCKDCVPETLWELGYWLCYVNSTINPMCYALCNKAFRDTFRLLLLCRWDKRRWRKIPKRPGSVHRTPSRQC

[6] = biological target: Epidermal growth factor receptor (Homo sapiens) (UniProt P00533); assay: EGFR Invitrogen kinase panel; conditions: Compound concentration 10.0 uM
Chain of Epidermal growth factor receptor (Homo sapiens) (P00533 whole entry): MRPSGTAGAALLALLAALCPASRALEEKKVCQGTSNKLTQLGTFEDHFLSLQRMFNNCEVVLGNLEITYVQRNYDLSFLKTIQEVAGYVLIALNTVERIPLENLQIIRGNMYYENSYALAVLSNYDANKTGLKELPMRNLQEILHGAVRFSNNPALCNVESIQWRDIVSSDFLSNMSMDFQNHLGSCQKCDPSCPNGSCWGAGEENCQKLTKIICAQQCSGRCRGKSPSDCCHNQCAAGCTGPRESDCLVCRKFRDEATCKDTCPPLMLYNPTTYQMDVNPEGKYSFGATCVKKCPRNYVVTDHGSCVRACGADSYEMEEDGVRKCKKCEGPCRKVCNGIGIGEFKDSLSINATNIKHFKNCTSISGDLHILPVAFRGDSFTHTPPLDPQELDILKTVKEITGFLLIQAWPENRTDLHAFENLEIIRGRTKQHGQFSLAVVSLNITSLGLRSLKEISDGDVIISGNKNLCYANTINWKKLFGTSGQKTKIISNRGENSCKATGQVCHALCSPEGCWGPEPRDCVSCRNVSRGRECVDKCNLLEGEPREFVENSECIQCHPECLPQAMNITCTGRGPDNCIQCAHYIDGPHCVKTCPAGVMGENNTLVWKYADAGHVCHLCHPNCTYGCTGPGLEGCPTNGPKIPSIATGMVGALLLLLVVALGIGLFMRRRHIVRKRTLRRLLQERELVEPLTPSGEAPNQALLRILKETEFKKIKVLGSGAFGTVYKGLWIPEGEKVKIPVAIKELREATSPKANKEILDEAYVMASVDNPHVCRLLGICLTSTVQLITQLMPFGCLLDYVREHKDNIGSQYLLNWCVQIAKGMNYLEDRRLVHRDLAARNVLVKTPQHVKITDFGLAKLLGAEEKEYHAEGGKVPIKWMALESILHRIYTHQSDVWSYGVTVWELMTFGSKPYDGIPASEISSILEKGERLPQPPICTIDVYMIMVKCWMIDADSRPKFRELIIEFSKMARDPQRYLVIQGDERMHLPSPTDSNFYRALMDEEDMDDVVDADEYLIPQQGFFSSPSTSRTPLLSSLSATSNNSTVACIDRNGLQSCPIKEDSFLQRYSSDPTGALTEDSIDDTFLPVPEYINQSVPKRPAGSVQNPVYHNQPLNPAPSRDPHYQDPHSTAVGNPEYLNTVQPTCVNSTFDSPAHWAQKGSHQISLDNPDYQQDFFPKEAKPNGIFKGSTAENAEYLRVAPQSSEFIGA

[7] = biological target: Neuromedin-K receptor (Homo sapiens) (UniProt P29371); assay: NK3 (h) CEREP screen
Chain of Neuromedin-K receptor (Homo sapiens) (P29371 whole entry): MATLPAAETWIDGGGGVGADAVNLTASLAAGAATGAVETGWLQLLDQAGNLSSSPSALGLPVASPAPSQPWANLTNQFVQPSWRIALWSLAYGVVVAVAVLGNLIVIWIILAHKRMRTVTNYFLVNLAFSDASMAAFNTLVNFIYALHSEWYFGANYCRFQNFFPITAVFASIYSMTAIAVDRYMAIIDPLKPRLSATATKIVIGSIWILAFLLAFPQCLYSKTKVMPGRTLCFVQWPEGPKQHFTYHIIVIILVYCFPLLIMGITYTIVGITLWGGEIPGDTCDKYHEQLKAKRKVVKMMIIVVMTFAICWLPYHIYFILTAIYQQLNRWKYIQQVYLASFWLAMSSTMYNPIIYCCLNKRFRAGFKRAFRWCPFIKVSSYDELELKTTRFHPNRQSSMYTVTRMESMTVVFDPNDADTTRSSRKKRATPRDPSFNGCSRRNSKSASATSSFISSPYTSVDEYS

[8] = biological target: Melatonin receptor type 1A (Homo sapiens) (UniProt P48039); assay: MT1 (ML1A) (h) CEREP screen; conditions: Compound concentration 10.0 uM
Chain of Melatonin receptor type 1A (Homo sapiens) (P48039 whole entry): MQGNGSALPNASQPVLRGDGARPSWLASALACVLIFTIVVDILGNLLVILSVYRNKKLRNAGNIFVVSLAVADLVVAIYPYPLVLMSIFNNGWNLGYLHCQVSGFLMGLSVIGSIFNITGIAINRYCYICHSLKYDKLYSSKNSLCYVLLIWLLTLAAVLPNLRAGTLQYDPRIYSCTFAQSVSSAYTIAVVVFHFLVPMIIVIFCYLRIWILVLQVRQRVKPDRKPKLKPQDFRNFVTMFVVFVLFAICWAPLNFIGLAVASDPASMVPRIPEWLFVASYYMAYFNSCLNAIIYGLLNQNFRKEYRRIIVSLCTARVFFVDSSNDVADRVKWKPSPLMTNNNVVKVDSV

[9] = biological target: Mu-type opioid receptor (Homo sapiens) (UniProt P35372); assay: Mu (h) CEREP screen; conditions: Compound concentration 10.0 uM
[10] = biological target: Ribosomal protein S6 kinase alpha-2 (Homo sapiens) (UniProt Q15349); assay: Rsk3 Invitrogen kinase panel; conditions: Compound concentration 10.0 uM
Chain of Ribosomal protein S6 kinase alpha-2 (Homo sapiens) (Q15349 whole entry): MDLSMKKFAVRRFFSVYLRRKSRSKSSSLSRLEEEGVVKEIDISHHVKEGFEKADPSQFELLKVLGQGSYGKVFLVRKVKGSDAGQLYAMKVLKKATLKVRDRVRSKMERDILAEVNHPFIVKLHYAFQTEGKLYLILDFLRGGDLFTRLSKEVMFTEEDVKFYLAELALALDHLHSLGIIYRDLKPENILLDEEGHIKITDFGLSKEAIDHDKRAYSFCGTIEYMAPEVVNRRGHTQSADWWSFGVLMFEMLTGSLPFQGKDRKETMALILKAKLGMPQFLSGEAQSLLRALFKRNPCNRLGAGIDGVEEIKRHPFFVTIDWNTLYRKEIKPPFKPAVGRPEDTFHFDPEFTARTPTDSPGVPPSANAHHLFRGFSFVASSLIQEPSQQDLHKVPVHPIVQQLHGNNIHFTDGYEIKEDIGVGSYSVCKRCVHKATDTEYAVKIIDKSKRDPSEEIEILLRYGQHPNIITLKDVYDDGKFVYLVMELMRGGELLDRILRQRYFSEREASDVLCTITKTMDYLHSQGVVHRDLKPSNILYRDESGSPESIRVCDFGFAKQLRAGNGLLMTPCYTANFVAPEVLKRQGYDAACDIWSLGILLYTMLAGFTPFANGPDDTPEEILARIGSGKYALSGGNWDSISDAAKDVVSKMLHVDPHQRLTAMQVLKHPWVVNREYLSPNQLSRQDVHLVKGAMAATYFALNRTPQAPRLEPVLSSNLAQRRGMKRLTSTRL

[11] = biological target: 5-hydroxytryptamine receptor 7 (Homo sapiens) (UniProt P34969); conditions: Compound concentration 10.0 uM
Chain of 5-hydroxytryptamine receptor 7 (Homo sapiens) (P34969 whole entry): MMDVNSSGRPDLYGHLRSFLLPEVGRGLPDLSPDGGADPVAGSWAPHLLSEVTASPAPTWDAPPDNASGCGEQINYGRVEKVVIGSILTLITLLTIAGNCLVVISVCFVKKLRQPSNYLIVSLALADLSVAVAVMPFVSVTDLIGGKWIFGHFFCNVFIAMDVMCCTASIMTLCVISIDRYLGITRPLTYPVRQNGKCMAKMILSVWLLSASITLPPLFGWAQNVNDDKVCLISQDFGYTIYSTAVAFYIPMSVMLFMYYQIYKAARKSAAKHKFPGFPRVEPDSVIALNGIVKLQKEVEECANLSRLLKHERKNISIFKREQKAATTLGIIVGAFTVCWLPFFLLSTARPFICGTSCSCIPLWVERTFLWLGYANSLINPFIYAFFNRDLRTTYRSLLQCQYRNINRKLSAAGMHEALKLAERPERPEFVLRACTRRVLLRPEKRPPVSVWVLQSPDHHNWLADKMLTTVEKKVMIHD

[12] = biological target: Histamine H1 receptor (Homo sapiens) (UniProt P35367); conditions: Compound concentration 10.0 uM
[13] = biological target: Beta-1 adrenergic receptor (Homo sapiens) (UniProt P08588); conditions: Compound concentration 10.0 uM
[14] = biological target: Sodium-dependent noradrenaline transporter (Homo sapiens) (UniProt P23975); assay: norepinephrine transporter (h) CEREP screen
Chain of Sodium-dependent noradrenaline transporter (Homo sapiens) (P23975 whole entry): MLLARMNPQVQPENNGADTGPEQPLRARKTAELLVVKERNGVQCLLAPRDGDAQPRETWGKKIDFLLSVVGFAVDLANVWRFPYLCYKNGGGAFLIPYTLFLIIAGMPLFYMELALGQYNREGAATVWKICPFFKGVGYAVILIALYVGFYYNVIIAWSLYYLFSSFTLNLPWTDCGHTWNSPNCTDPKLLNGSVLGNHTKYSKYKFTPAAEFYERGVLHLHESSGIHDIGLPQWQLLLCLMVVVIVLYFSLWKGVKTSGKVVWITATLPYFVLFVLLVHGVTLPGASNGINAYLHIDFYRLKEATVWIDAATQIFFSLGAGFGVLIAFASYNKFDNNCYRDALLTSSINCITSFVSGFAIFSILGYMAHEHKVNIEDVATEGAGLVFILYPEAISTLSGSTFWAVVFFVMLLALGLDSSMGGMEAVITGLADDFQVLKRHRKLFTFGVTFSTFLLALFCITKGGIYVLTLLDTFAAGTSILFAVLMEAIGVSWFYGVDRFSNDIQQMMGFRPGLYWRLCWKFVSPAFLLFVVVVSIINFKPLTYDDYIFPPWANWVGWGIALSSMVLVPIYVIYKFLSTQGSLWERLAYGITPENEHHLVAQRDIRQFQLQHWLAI

[15] = biological target: GABA-A receptor; anion channel (Homo sapiens) (UniProt P14867+P47870+P18507+P28472+P48169+Q99928+Q9UN88+P34903+O00591+O14764+Q8N1C3+P18505+P78334+P47869+P31644+Q16445); assay: Cl- channel CEREP screen; assay type: protein-complex assay
[16] = biological target: Insulin-like growth factor 1 receptor (Homo sapiens) (UniProt P08069); assay: IGF-1R Invitrogen kinase panel; conditions: Compound concentration 10.0 uM
[17] = biological target: Glycogen synthase kinase-3 alpha (Homo sapiens) (UniProt P49840); assay: GSK3alpha Invitrogen kinase panel; conditions: Compound concentration 10.0 uM
[18] = biological target: Nuclear receptor ROR-gamma (Homo sapiens, UniProt P51449); assay: One-hybrid LBD; design: compound concentration 6 uM
Chain of Nuclear receptor ROR-gamma (P51449 whole entry, the tested form may be a part): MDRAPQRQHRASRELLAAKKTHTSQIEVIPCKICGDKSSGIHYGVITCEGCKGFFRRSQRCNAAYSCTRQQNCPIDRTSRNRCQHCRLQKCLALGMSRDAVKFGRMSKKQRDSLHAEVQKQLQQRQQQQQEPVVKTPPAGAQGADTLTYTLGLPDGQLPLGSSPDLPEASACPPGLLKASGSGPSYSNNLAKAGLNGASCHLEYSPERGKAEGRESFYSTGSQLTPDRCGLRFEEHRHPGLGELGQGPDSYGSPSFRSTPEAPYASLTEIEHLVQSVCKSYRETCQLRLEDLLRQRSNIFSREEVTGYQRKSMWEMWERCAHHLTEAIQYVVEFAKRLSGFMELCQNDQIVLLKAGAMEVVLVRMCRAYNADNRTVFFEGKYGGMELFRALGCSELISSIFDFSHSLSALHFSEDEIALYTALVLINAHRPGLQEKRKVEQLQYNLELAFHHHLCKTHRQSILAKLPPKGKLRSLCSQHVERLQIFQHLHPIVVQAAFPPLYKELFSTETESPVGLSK

[19] = biological target: Peroxisome proliferator-activated receptor delta (Homo sapiens, UniProt Q03181); assay: (§1) PPARdelta In-house nuclear receptor screen
[20] = biological target: T3, Peroxisome proliferator-activated receptor delta (Homo sapiens) (UniProt Q03181); assay: as §1; conditions: Compound concentration 3.0 uM
T3 sequence (whole entry): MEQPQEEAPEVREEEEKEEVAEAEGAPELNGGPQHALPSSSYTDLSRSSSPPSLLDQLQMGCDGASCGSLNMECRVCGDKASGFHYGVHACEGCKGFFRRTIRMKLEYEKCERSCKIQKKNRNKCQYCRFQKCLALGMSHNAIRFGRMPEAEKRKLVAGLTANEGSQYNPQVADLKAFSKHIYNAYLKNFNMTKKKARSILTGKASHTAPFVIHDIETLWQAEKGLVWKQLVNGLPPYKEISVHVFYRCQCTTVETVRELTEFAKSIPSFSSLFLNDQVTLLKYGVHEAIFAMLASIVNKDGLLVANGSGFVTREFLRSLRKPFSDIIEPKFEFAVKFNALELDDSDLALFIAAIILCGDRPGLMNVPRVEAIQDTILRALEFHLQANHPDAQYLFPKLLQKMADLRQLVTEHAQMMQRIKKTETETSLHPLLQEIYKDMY

[21] = biological target: Receptor-type tyrosine-protein kinase FLT3 (Homo sapiens) (UniProt P36888); assay: Flt3 Invitrogen kinase panel; conditions: Compound concentration 10.0 uM
[22] = biological target: Vitamin D3 receptor (Homo sapiens) (UniProt P11473); assay: VDR Indigo Bioscience nuclear receptor screen
Chain of Vitamin D3 receptor (Homo sapiens) (P11473 whole entry): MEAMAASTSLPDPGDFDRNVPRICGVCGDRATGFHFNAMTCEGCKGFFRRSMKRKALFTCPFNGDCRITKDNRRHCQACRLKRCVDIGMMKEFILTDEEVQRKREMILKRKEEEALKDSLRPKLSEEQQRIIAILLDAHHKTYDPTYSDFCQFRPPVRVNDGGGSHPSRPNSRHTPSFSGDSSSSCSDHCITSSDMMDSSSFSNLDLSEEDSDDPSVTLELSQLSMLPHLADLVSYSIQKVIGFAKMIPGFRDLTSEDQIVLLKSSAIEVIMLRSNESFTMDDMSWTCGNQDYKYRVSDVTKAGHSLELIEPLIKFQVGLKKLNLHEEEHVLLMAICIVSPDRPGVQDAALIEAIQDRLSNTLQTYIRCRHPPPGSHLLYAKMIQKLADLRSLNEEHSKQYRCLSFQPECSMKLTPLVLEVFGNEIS

inhibition [1]: 23%
inhibition [2]: 6.64%
inhibition ([3]; Compound concentration 0.3 uM): -0.894%
inhibition ([3]; Compound concentration 3.0 uM): -6.01%
inhibition [4]: 8.86%
inhibition [5]: 5.4%
inhibition [6]: -4%
inhibition ([7]; Compound concentration 1.0 uM): 18%
inhibition ([7]; Compound concentration 10.0 uM): 22%
inhibition [8]: 20%
inhibition [9]: 15%
inhibition [10]: 11%
inhibition [11]: -2.29%
inhibition [12]: 38%
inhibition [13]: 15.2%
inhibition ([14]; Compound concentration 1.0 uM): 34%
inhibition ([14]; Compound concentration 10.0 uM): 16%
inhibition ([15]; Compound concentration 1.0 uM): 21%
inhibition ([15]; Compound concentration 10.0 uM): 44%
inhibition [16]: 6%
inhibition [17]: -4%
IC50 [18]: 30 nM (active)
IC50 [19]: 5.9 µM
inhibition [20]: 37.3%
inhibition [21]: 4%
inhibition ([22]; Compound concentration 0.3 uM): -6.97%
inhibition ([22]; Compound concentration 1.0 uM): -0.284%
SMILES: COc1nc2ccc([C@@](O)(c3ccccc3)C3CCN(C(C)=O)CC3)cc2c(Cl)c1Cc1ccc(-n2cccn2)cc1 [JNJ-54119936]
